{"source": "paper PMC8287944", "about": "“5-Fluorouracil blocks quorum-sensing of biofilm-embedded methicillin-resistant Staphylococcus aureus in mice” (Nucleic Acids Research, 2021)", "key": {"HEK-293AI2 cells": {"tested_on": "HEK-293AI2 cells", "type": "cell-based, human", "conditions": "human, 5 µM", "description": "To monitor viable cells with active metabolism, we employed a fast resazurin assay. […] To calculate the relative cell viability, the fluorescence of DMSO-treated cells was set to 100%.\nFigure 2. Cell-based primary screen for AI-2 biosynthesis inhibitors. (A) Detailed assay protocol of the primary screen using engineered mammalian cells to identify inhibitors of quorum sensing. […] Aliquots of 10 μl of culture supernatants were transferred to black-bottomed assay plates and mixed with 40 μl of V. harveyi MM32 (AI-2 biosensor). AI-2-induced bioluminescence was measured 4 h later and normalized against the controls. In a secondary screen, the dose-response relationships of hit compounds are analyzed. To simultaneously assess effects on cell viability, compound-treated cells were supplemented with PrestoBlue and incubated for 1 h prior to resorufin fluorescence quantification. (B) Z’-evaluation of the AI-2 inhibitor assay. […] Bioactivity and viability are calculated as percentages, based on the positive control value (taken as 100%) and negative control value (taken as 0%). […] Data points in (C) represent means of biological duplicates."}, "V. harveyi (BB170)": {"tested_on": "V. harveyi (BB170)", "experiment": "V. harveyi BB170 growth (OD600 after 24 h)", "type": "cell-based, Vibrio harveyi", "conditions": "V. harveyi BB170, OD600 after 24 h", "description": "The test strain V. harveyi BB170 was grown overnight in Luria Marine (LM)-medium ([25]). The culture was 1:500 diluted in AB-medium (0.3 M NaCl, 10 mM potassium phosphate, 1 mM L-arginine, […], 1% glycerol) the next day, and then challenged with various chemical compounds. After 5 h of shaking at 200 rpm at 30°C, the bioluminescence of BB170 was quantified on a GENios Pro plate reader (Tecan, Männedorf, Switzerland).\nFigure 3. Bioactivity of hit candidates against Vibrio harveyi. Effect on bacterial growth. V. harveyi (BB170) was grown in the presence of individual compounds (A–H) for 5 h and the bioluminescence (green circles) was quantified. After a total of 24 h, bacterial growth (+) was evaluated by measuring the optical density (OD600). The gray translucent background in (C) represents the narrow range within which the compound reduces bioluminescence without affecting growth."}, "MRSA ATCC 43300": {"tested_on": "MRSA ATCC 43300", "experiment": "AI-2 activity of MRSA ATCC 43300", "type": "cell-based, Staphylococcus aureus", "conditions": "MRSA ATCC 43300, 3 h, different 5-FU concentrations", "description": "To confirm that the phenotype could be restored, 1 μM synthetic (S)-4,5-dihydroxy-2,3-pentanedione (DPD) (Biosynth Carbosynth, Staad, Switzerland) was used. After 3 h under static conditions at 37°C, the supernatant was analysed for AI-2 activity with V. harveyi (MM32).\nFigure 4. Bioactivity of 5-FU against MRSA ATCC 43300. (A) Quorum sensing-associated AI-2 activity of MRSA 43300 grown for 3 h with different 5-FU concentrations. (B) Effect of different 5-FU concentrations on MRSA 43300 growth. (C) Interference with biofilm formation. (D) Effect on adherent MRSA 43300. Data points represent three biological replicates expressed as mean ± SD (**P < 0.01; ***P < 0.001; ****P < 0.0001).\nFigure 5. Phenotype restoration with synthetic AI-2 supplementation. AI-2 activity of MRSA ATCC 43300 was evaluated with and without 1 μM DPD in the presence of different 5-FU concentrations. The dashed line indicates the baseline level of AI-2 of MRSA ATCC 43300 in the absence of 5-FU. Values represent 3 biological replicates expressed as mean ± SD (**P < 0.01; ****P < 0.0001)."}}}
{"smiles": "O=c1[nH]cc(F)c(=O)[nH]1", "note": "[5-Fluorouracil]", "values": [{"measurement": "Viability of Ctrl (%)", "setting": "HEK-293AI2 cells", "value": 1.53, "unit": "%"}, {"measurement": "Effect on V. harveyi growth", "setting": "V. harveyi (BB170)", "value": "without decreasing the growth"}, {"measurement": "AI-2 production and quorum-sensing capacity of MRSA", "setting": "MRSA ATCC 43300", "value": "dose-dependently reduced"}]}
